One assay concerns Calu-6. Put plainly: Compounds cellular killing in Calu-6. The note with it: Homo sapiens, Calu-6, 6 days, Cell Titer-Glo. In kind it is cell-based, human. As for the experimental part: (§1) Seeding cells A375 (1E3/well) or Calu-6 (2E3/well) into 96-well plate (Greiner: 655090), 100 ul/well. Incubation at 37° C., 5% CO2, overnight.
(§2) Adding the fresh growth-medium containing the varying concentrations of compounds, 50 ul/well.
(§3) Incubation at 37° C., 5% CO2, 6 days.
(§4) The cell viability detected by Cell Titer-Glo (Promega, G7573). Add 70 µL/well of CellTiter-Glo® Reagent in each well.
(§5) Allow the plates to incubate at room temperature for 10 minutes to stabilize luminescent signal.
(§6) Analyze with Microplate Reader.
(§7) Seeding cells A375 ([…] or Calu-6 (2E3/well) into 96-well plate (Greiner: 655090), 100 ul/well. Incubation at 37° C., […], overnight.
In general terms: ATP-based viability assays read luminescence as a measure of living cells.

The subject of another assay is A375. Put plainly: Compounds cellular killing in A375. In kind it is cell-based, human. The settings on record: Homo sapiens, A375, 6 days, Cell Titer-Glo. The method, then:
as §1, §2, §3, §4, §5, §6, §7

For 13 compounds, EC50 and Emax results are on record in patent publication US20250295798A1, “LIGAND-DRUG CONJUGATE OF EXATECAN ANALOGUE, AND MEDICAL USE THEREOF” (BeiGene Switzerland GmbH, priority 2022, published 2025).

pEC50: −log10 of the molar value.

The term pEC50 denotes the EC50 on a negative log10 scale, so that one unit is a factor of ten. High values mean a low EC50, low ones a high EC50. The Emax is the greatest response seen or fitted, relative to the assay's reference. In the assay on Calu-6 (Calu-6, […]), `CC[C@@]1(O)C(=O)OCc2c1cc1n(c2=O)Cc2c-1nc1cc(F)c(C)c3c1c2[C@@H](NC(=O)C[C@H](O)CC#N)CC3` [Example 2-20, (R)-4-cyano-N-((1S,9S)-9-ethyl-5-fluoro-9-hydroxy-4-methyl-10,13-dioxo-2,3,9,10,13,15-hexahydro-1H,12H-benzo[de]pyrano[3′,4′:6,7]indolizino[1,2-b]quinolin-1-yl)-3-hydroxybutanamide] had a pEC50 of 8.25 and an Emax of 98.1%. In addition, in the assay with A375 (A-375, […]), the pEC50 is 7.73 and the Emax was determined as 98%.

In the assay with Calu-6 (Calu-6, […]), `CC[C@@]1(O)C(=O)OCc2c1cc1n(c2=O)Cc2c-1nc1cc(F)c(C)c3c1c2[C@@H](NC(=O)C(O)(C(F)(F)F)C(F)(F)F)CC3` [Example 2-21, N-((1S,9S)-9-ethyl-5-fluoro-9-hydroxy-4-methyl-10,13-dioxo-2,3,9,10,13,15-hexahydro-1H,12H-benzo[de]pyrano[3′,4′:6,7]indolizino[1,2-b]quinolin-1-yl)-3,3,3-trifluoro-2-hydroxy-2-(trifluoromethyl)propenamide] gave a pEC50 of 9.40 and an Emax of 96.7%. Moreover, in the assay with A375 (A-375, […]), the pEC50 was 8.35 and the Emax was 98.3%.

`CC[C@@]1(O)C(=O)OCc2c1cc1n(c2=O)Cc2c-1nc1cc(F)c(C)c3c1c2[C@@H](n1cc(CO)nn1)CC3` [Example 2-22, (1S,9S)-9-ethyl-5-fluoro-9-hydroxy-1-(4-(hydroxymethyl)-1H-1,2,3-triazol-1-yl)-4-methyl-1,2,3,9,12,15-hexahydro-10H,13H-benzo[de]pyrano[3′,4′:6,7]indolizino[1,2-b]quinoline-10,13-dione]: the pEC50 in the assay on Calu-6 (Calu-6, […]) is 8.25; in the assay on A375 (A-375, […]), 7.98. The Emax came to 98% in the assay on Calu-6 (Calu-6, […]) and 97.7% in the assay with A375 (A-375, […]).

In the assay with Calu-6 (Calu-6, […]), `CC[C@@]1(O)C(=O)OCc2c1cc1n(c2=O)Cc2c-1nc1cc(F)c(C)c3c1c2[C@@H](n1cc(CCO)nn1)CC3` [Example 2-23, (1S,9S)-9-ethyl-5-fluoro-9-hydroxy-1-(4-(2-hydroxyethyl)-1H-1,2,3-triazol-1-yl)-4-methyl-1,2,3,9,12,15-hexahydro-10H,13H-benzo[de]pyrano[3′,4′:6,7]indolizino[1,2-b]quinoline-10,13-dione] gave a negative-log EC50 (pEC50) of 8.72 and an Emax of 98.9%. Also, in the assay with A375 (A-375, […]), the pEC50 is 8.48 and the Emax was determined as 99.9%.

`CC[C@@]1(O)C(=O)OCc2c1cc1n(c2=O)Cc2c-1nc1cc(F)c(C)c3c1c2[C@@H](n1cc(CCCO)nn1)CC3` [Example 2-24, (1S,9S)-9-ethyl-5-fluoro-9-hydroxy-1-(4-(3-hydroxypropyl)-1H-1,2,3-triazol-1-yl)-4-methyl-1,2,3,9,12,15-hexahydro-10H,13H-benzo[de]pyrano[3′,4′:6,7]indolizino[1,2-b]quinoline-10,13-dione]: in the assay with Calu-6 (Calu-6, […]), the pEC50 was 8.49 and the maximum response (Emax) is 99.2%. Besides, in the assay on A375 (A-375, […]), the negative logarithm of the EC50 (pEC50) is 8.15 and the Emax was 99.9%.

For the compound `CC[C@@]1(O)C(=O)OCc2c1cc1n(c2=O)Cc2c-1nc1cc(F)c(C)c3c1c2[C@@H](NC(=S)NCCO)CC3` [Example 2-25, 1-((1S,9S)-9-ethyl-5-fluoro-9-hydroxy-4-methyl-10,13-dioxo-2,3,9,10,13,15-hexahydro-1H,12H-benzo[de]pyrano[3′,4′:6,7]indolizino[1,2-b]quinolin-1-yl)-3-(2-hydroxyethyl)thiourea], the pEC50 in the assay on Calu-6 (Calu-6, […]) was 10.00; in the assay with A375 (A-375, […]), 9.05. Besides, the Emax in the assay on Calu-6 (Calu-6, […]) was 98.2%; in the assay on A375 (A-375, […]), 99.9%.

As to `CC[C@@]1(O)C(=O)OCc2c1cc1n(c2=O)Cc2c-1nc1cc(F)c(C)c3c1c2[C@@H](NC(=O)NCCO)CC3` [Example 2-26, 1-((1S,9S)-9-ethyl-5-fluoro-9-hydroxy-4-methyl-10,13-dioxo-2,3,9,10,13,15-hexahydro-1H,12H-benzo[de]pyrano[3′,4′:6,7]indolizino[1,2-b]quinolin-1-yl)-3-(2-hydroxyethyl)urea], the Emax in the assay on Calu-6 (Calu-6, […]) was 98.4%; in the assay with A375 (A-375) it was 97.7%. Further, the pEC50 in the assay with Calu-6 is 8.29; in the assay on A375 (A-375), 7.73.

For the compound `CC[C@@]1(O)C(=O)OCc2c1cc1n(c2=O)Cc2c-1nc1cc3c(c4c1c2[C@@H](NC(=O)CO)CC4)OC(F)(F)O3` [Example 2-27, N-((1S,10S)-10-ethyl-5,5-difluoro-10-hydroxy-11,14-dioxo-2,3,10,11,14,16-hexahydro-1H,13H-benzo[de][1,3]dioxolo[4,5-g]pyrano[3′,4′:6,7]indolizino[1,2-b]quinolin-1-yl)-2-hydroxyacetamide], in the assay with Calu-6 (Calu-6, […]), the pEC50 was 8.41 and the Emax turned out to be 99.5%. For the same compound, in the assay with A375 (A-375, […]), the pEC50 was 7.97 and the Emax is 99.5%.

`CC[C@@]1(O)C(=O)OCc2c1cc1n(c2=O)Cc2c-1nc1cc(OC)cc3c1c2[C@@H](NC(=O)CO)CC3` [Example 2-28, N-((1S,9S)-9-ethyl-9-hydroxy-5-methoxy-10,13-dioxo-2,3,9,10,13,15-hexahydro-1H,12H-benzo[de]pyrano[3′,4′:6,7]indolizino[1,2-b]quinolin-1-yl)-2-hydroxyacetamide]: in the assay with Calu-6 (Calu-6, […]), the negative logarithm of the EC50 (pEC50) was 8.13 and the Emax is 98.7%. In the assay with A375 (A-375, […]), this compound gave a negative logarithm of the EC50 (pEC50) of 7.86 and an Emax of 98.8%.

In the assay with Calu-6 (Calu-6, […]), `CC[C@@]1(O)C(=O)OCc2c1cc1n(c2=O)Cc2c-1nc1cc(F)c(F)c3c1c2[C@@H](NC(=O)CO)CC3` [Example 2-30, N-((1S,9S)-9-ethyl-4,5-difluoro-9-hydroxy-10,13-dioxo-2,3,9,10,13,15-hexahydro-1H,12H-benzo[de]pyrano[3′,4′:6,7]indolizino[1,2-b]quinolin-1-yl)-2-hydroxyacetamide] had a pEC50 of 9.15 and a maximal effect (Emax) of 98.9%. Moreover, in the assay with A375 (A-375, […]), the pEC50 was 8.92 and the Emax was determined as 98.9%.

As for `CC[C@@]1(O)C(=O)OCc2c1cc1n(c2=O)Cc2c-1nc1cc(F)cc3c1c2[C@@H](NC(=O)CO)CC3` [Example 2-31, N-((1S,9S)-9-ethyl-5-fluoro-9-hydroxy-10,13-dioxo-2,3,9,10,13,15-hexahydro-1H,12H-benzo[de]pyrano[3′,4′:6,7]indolizino[1,2-b]quinolin-1-yl)-2-hydroxyacetamide], the pEC50 in the assay with Calu-6 (Calu-6, […]) is 8.38; in the assay with A375 (A-375, […]), 8.21. For the same compound, the Emax in the assay with Calu-6 (Calu-6, […]) was found to be 98.9%; in the assay on A375 (A-375, […]), 98.9%.

For the compound `CC[C@@]1(O)C(=O)OCc2c1cc1n(c2=O)Cc2c-1nc1cc(O)cc3c1c2[C@@H](NC(=O)CO)CC3` [Example 2-32, N-((1S,9S)-9-ethyl-5,9-dihydroxy-10,13-dioxo-2,3,9,10,13,15-hexahydro-1H,12H-benzo[de]pyrano[3′,4′:6,7]indolizino[1,2-b]quinolin-1-yl)-2-hydroxyacetamide], in the assay on Calu-6 (Calu-6, […]), the pEC50 is 7.09 and the maximal effect (Emax) was 93.7%. For the same compound, in the assay on A375 (A-375, […]), the negative-log EC50 (pEC50) is 6.43 and the Emax was determined as 93.7%.

Regarding `CC[C@@]1(O)C(=O)OCc2c1cc1n(c2=O)Cc2c-1nc1cc(F)c(Cl)c3c1c2[C@@H](NC(=O)C(C)(C)CO)CC3` [Example 2-34, N-((1S,9S)-4-chloro-9-ethyl-5-fluoro-9-hydroxy-10,13-dioxo-2,3,9,10,13,15-hexahydro-1H,12H-benzo[de]pyrano[3′,4′:6,7]indolizino[1,2-b]quinolin-1-yl)-3-hydroxy-2,2-dimethylpropanamide], the pEC50 was 9.30 in the assay with Calu-6 (Calu-6, […]) and 9.10 in the assay on A375 (A-375, […]). Also, the Emax was determined as 99.4% in the assay with Calu-6 (Calu-6, […]) and 98.9% in the assay on A375 (A-375, […]).
